Measurements as given in US9497963B2, “Methods and compositions for control of gypsy moth, Lymantria dispar” (Simon Fraser University, priority 2008, dated 2016).
Like-named read-outs stand apart in the source and are kept apart here.

What was measured:
Design in all cases: species or system Lymantria dispar
[1] = system: male gypsy moth antenna response to pheromone (+)-1; assay: EAG short-term (STI) and long-term (LTI) inhibition of pheromone signaling (Example 5); conditions: Lymantria dispar; for inhibition at 0.001 mg: mixed plume (+)-1 100 ng + compound 1 μg; for inhibition at 0.001 mg / inhibition at 0.01 mg / inhibition at 0.1 mg: negative = enhancement, read-out: Activity (%): short-term inhibition (STI); for inhibition at 0.01 mg: mixed plume (+)-1 100 ng + compound 10 μg; for inhibition at 0.1 mg: mixed plume (+)-1 100 ng + compound 100 μg (puff v); for inhibition at 100 µg, 0.1 mg: read-out: Activity (%): long-term inhibition (LTI)
Experimental: The puffs are numbered i-vi and were: i=air, ii=pure pheromone (+)-disparlure, (+)-1, (100 ng), iii-v=disparlure mixed with the test compound, the latter at three different doses, vi=pure (+)-1. Depolarizations from the resting potential are labeled d; hyperpolarizations seen during the recovery phase after a puff are labeled r. Subscripts refer to the puff number. FIG. 5A. Typical trace for compound 3c{2,3}. FIG. 5B. Typical trace for compound 3a{4,4}.
For other compounds, EAG traces were recorded as follows: a fully dislodged antenna from a male gypsy moth was mounted on the end of a reference electrode (a glass capillary with a silver wire, filled with buffered saline: 5 mM NaH2PO4, 10 mM Na2SO4, 4.5 mM KHCO3, 18 mM MgCl2, 4 mM CaCl2, 6 mM KCl, the pH is adjusted to 6.8 using 5 mM Na2HPO4). The tip of the antenna was severed with microscissors and placed in the recording electrode, which was mounted on a micromanipulator. A constant stream of air, that had been purified (charcoal filter), was blown over the antenna at a rate of 300 mL/min. Test samples were delivered through a stimulus delivery tube with a side opening 2 cm from the distal opening. The proximal end of the delivery tube was connected to a controlled stimulus delivery apparatus (Stimulus controller CS-05 Syntech Research and Equipment, NL 1200BM, Hilversum, The Netherlands). The distal end of the delivery tube pointed at the antenna (1 cm from the antenna). The side opening was connected to a cartridge fashioned from a Pasteur pipette which contained a small filter paper (Whatman No. 1) with the stimulus. These pipette cartridges could be prepared a few days in advance and stored at −80° C. wrapped in Al foil and in sealable plastic bags. Sample cartridges were mounted once they had reached room temperature. The stimulus delivery apparatus delivered a second stream of air (a puff) through the Pasteur pipette at a velocity of 600 mL/min, at a specified point in time, for 0.3 s. Receptor potentials of the antennae in response to test stimuli were recorded with a Syntech IDAC probe, amplifier and interfaced board, and were analyzed with EAG Syntech Software Version 2.4 (1996). See FIG. 4 for a representative EAG trace. The EAG traces were evaluated as follows (see FIG. 5).
The net depolarizations, d(net) (in mV), of puffs ii-vi,d(sample), (corrected for the depolarization with clean air, d(air)) d(net)=d(sample)−d(air) (Eq. 1)
The percentage short-term inhibition for each compound (STI(compound)) of puffs iii-v, relative to the first pure pheromone puff (ii) STI(compound)=100×(d(net)(ii)−d(net)(compound))/d(net)(ii) (Eq. 2)
c) the percentage long-term inhibition for each compound (LTI(compound)) of the pure pheromone puff that followed the last mixed puff (vi) relative to the first pure pheromone puff (ii) LTI(compound)=100×(d(net)(ii)−d(net)(vi))/d(net)(ii) (Eq. 3)
The compounds we tested gave weak or no olfactory responses by themselves in electroantennogram (EAG) experiments. The EAG trace reflects the change in the potential across the antenna when an air puff with an odorant is passed over the antenna. To understand the agonistic or antagonistic effect of the compounds on pheromone responses by male moth antennae, four types of EAG experiment were conducted. First, the response of the antenna elicited by a stimulus of pure (+)-1 was compared to the responses elicited by blends of (+)-1 with the test compound (FIG. 5). […] This effect was termed short-term inhibition (STI). […] Second, the time decay and dose responses for LTI activities were studied. Third, the strongest inhibitors were tested for their ability to cause LTI by themselves.
This experiment explored the agonistic or antagonistic activity of the synthetic aromatic compounds (Scheme 1 and eugenol and alkyl eugenols) with the gypsy moth pheromone (+)-1. […]

[2] = system: male gypsy moth antenna response to mixed pheromone/modulator plume; assay: EAG peak broadening (PB) (Example 11); conditions: mixed plume, 100 μg compound and 100 ng pheromone (puff v vs puff ii)
Experimental: A mixed pheromone/modulator plume could elicit a prolonged response (FIG. 1A, puff v; FIG. 2), and this was termed peak broadening (PB). PB was calculated from the EAG traces as follows: PB=100×(Δtv−Δtii)/Δtii
Where Δt was the width of the EAG peak (in s) from the start of the depolarization to the return to background potential.

[3] = system: male gypsy moth antenna; assay: Coupled gas chromatographic-electroantennographic detection (GC-EAD); conditions: EAD peak size and shape (sharp/broad)
Procedure, shortened: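 GC column effluent split between flame ionization detector and an excised male moth antenna held between saline-filled glass capillary electrodes, tip removed, in a warm air stream. Antennal potentials assigned to compounds by matching retention times with FID peaks.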

[4] = system: male gypsy moth antennae response to pheromone (+)-1 with plant odors; assay: Effect on mixed pheromone/plant odorant stimulus, EAG (Example 8, second objective); conditions: (+)-1 100 ng + 1-hexanol 100 μg, no antagonist
Experimental: A second objective for this experiment was to determine whether the oak volatiles, methyl eugenol and 1-hexanol, can enhance the antennal response to (+)-1 and whether the mixed pheromone/plant odorant stimulus can be inhibited by compound 3c{2,3} or DEET. The puff order was: i) air, ii) pure (+)-1 (100 ng), iii) (+)-1 (100 ng) and plant odorant (1 μg for methyl eugenol and 100 μg for 1-hexanol), iv) (+)-1 and plant odorant as in iii+antagonist (100 μg), v) same as in iii. Depolarizations were corrected for the air response as in Eq. 1 and the short-term effects were calculated for puff iii relative to puff ii, and for puff iv relative to puff ii. Long-term effects were calculated for puff v relative to puff iii (for LTI of the mixed pheromone/plant odorant plume) and for puff v relative to puff ii (to determine whether long-term effects of the plant odorant and of the antagonist cancel).

[5] = system: male gypsy moth antenna response to odorants other than (+)-1; assay: Long-term inhibition of responses to other pheromone and host plant odorants, EAG (Example 8, first objective)
Experimental: To determine whether the long-term inhibitory effects of 3c{2,3} and DEET are specific to (+)-1 or also apply to other odorants, compound 3c{2,3} and DEET were tested further with other odorants: (−)-1, racemic 1, dispar alkene, methyl eugenol and 1-hexanol.
These included (−)-1, racemic 1, dispar alkene (the alkene corresponding to the carbon framework of 1), methyl eugenol (a characteristic oak wood odorant) and 1-hexanol (a green leaf volatile, shown previously to be detected by gypsy moth antennae). For the pure odorant puffs, (−)-1 and racemic 1 were administered at 100 ng/cartridge, the alkene, methyl eugenol was administered at 1 μg/cartridge and 1-hexanol was administered at 100 μg/cartridge. The antagonists were both administered at 100 μg/cartridge, mixed with the appropriate dose of the odorant. The puff order was: i) air, ii) pure odorant, iii) odorant+antagonist, iv) pure odorant. All puffs were corrected for the air response as in Eq. 1. STI values were obtained from the depolarization […]. LTI values were obtained by comparing the depolarization of puff iv relative to that of puff ii.

[6] = system: L. dispar PBP 2; assay: Pheromone-binding protein (PBP) ligand binding assay, PBP2
Experimental: (§1) A. The protein and ligand are incubated in buffer overnight. B. For half of the incubation mixture, the free ligand (L) is separated from the protein-bound ligand (P.L) by size-exclusion chromatography on P2 Gel (BioRad, exclusion limit 2000 Da). The protein elutes from the small column bed, with its ligand bound (see Examples and […] et al. 2000; Staddon and Everton 1980), while the free ligand is retained on the column ([…] et al. 2000). C. […] The extract from the filtrate (B) contains the protein-bound ligand and the extract from the incubation mixture (A) contains all the ligand (bound and free) present in the aqueous phase. The extracts are analyzed by GC-MS, to obtain values for total ligand in solution (L+P.L) and for protein-bound ligand (P.L). These can then be used to calculate % bound (Table 3). These assays were performed as described in FIG. 3 and as follows: L. dispar PBP 1 or PBP 2 was incubated with the test compound or mini-library. The PBP and the ligand(s) (L) were left to equilibrate (eq 2) overnight. The non-bound ligand was then separated from the protein-bound material (PBP.L) by size-exclusion chromatography. By determining the total ligand in solution at equilibrium (eq. 3) and the protein-bound ligand, it is possible to estimate the percentage of ligand bound to the protein at equilibrium (eq. 4). […] This binding assay has been validated extensively in previous studies ([…] et al. 2000). The components of each mini-library separated cleanly by GC, so it was possible to monitor binding of individual components. PBP+L⇄PBP·L (eq. 2) [L]tot=[L]+[PBP·L] (eq. 3) % bound=100×[PBP·L]/[L]tot (eq. 4) Results: The members of each mini-library separated cleanly by GC, therefore it was possible to monitor binding of individual members to PBP1 or PBP2, the two known PBPs in the gypsy moth, by extraction from the aqueous incubation mixture, followed by GC analysis of the extract (FIG. 3).

[7] = system: L. dispar PBP 1; assay: Pheromone-binding protein (PBP) ligand binding assay, PBP1
Experimental: as §1

[8] = pure (+)-1 100 ng plume following mixed plume with 100 μg compound, mean ± S.E.
[9] = member tested within library 3c{2, 1-5}
[10] = member tested within library 3c{5, 1-5}
[11] = tested as single compound, means ± S.E., 4 replicates
[12] = member tested within library 3c{1, 1-5}

SMILES | inhibition at 0.001 mg ([1]; mean ± S.E.) [%] | inhibition at 0.01 mg ([1]; mean ± S.E.) [%] | inhibition at 0.1 mg ([1]; mean ± S.E.) [%] | inhibition at 100 µg, 0.1 mg [1, 8] [%] | activity (% peak broadening) [2] [%] | GC-EAD activity [3] | also measured
CCCCOc1ccccc1OCCCC [3a{4,4}, 1,2-Dibutoxy benzene] | -48 ± 28 | 14 ± 31 | 27 ± 29 | 49 ± 12 | 86 ± 32 | + broad | –
CCCCCCO [Compound 1-hexanol, 1-hexanol, reference compound] | – | – | – | – | – | – | short-term effect with the plant synergist [4]: −19 ± 24 (10); EAG response to the pure odorant (in words) [5]: weak odorant
CCOc1ccc(OCCC(C)C)cc1 [3c{2,5}, 1-ethoxy-4-(3-methyl-butyloxy) benzene] | – | – | – | – | – | None | PBP2 (% bound) [6, 9]: 14 ± 0.2%; PBP2 (% bound) [6, 10]: 3 ± 0.03%; PBP1 (% bound) [7, 9]: 4 ± 0.2%; PBP1 (% bound) [7, 10]: 2 ± 0.1%
COc1ccccc1OC [3a{1,1}, 1,2-Dimethoxy benzene] | – | – | – | – | 99 ± 25 | ++ sharp | inhibition at 100 µg, 0.1 mg [1]: 18 ± 13%
CCCOc1ccccc1OCCC [3a{3,3}, 1,2-Dipropoxy benzene] | 37 ± 14 | 4 ± 21 | -11 ± 36 | 36 ± 9 | 80 ± 31 | ++ sharp | –
CCCCOc1ccc(OCCC)cc1 [3c{3,4}, 1-butoxy-4-propoxy benzene] | -11 ± 18 | -90 ± 23 | -180 ± 26 | 22 ± 12 | – | None | PBP1 (% bound) ([7]; member tested within library 3c{4, 1-5}): 4 ± 0.3%
CCOc1ccccc1OCC [3a{2,2}, 1,2-Diethoxy benzene] | -10 ± 29 | -23 ± 42 | -22 ± 69 | 15 ± 11 | 106 ± 32 | + sharp | –
CCCCOc1ccc(OCCCC)cc1 [3c{4,4}, 1,4-Dibutoxy benzene] | -107 ± 41 | -90 ± 57 | – | 7 ± 14 | – | – | PBP2 (% bound) [6, 11]: 8 ± 0.3%; PBP1 (% bound) [7, 11]: 4 ± 0.1%
CCCOc1ccc(OCCC(C)C)cc1 [3c{3,5}, 1-(3-methyl-butyloxy)-4-propoxy benzene] | 10 ± 11 | -120 ± 20 | -145 ± 35 | 4 ± 7 | – | None | PBP2 (% bound) [6, 10]: 2 ± 0.02%; PBP1 (% bound) ([7]; member tested within library 3c{3, 1-5}): 1 ± 0.2%; PBP1 (% bound) [7, 10]: 3 ± 0.1%
C=CCOc1cccc(OCC)c1 [3b{2,6}, 1-allyloxy-3-ethoxybenzene] | -115 ± 43 | -17 ± 54 | -50 ± 74 | 25 ± 8 | 77 ± 33 | None | –
CCOc1ccc(OC)cc1 [3c{1,2}, 1-ethoxy-4-methoxy benzene] | – | – | – | – | – | ++ sharp | PBP2 (% bound) [6, 12]: 12 ± 1.5%; PBP2 (% bound) [6, 9]: 40 ± 0.1%; PBP1 (% bound) [7, 12]: 15 ± 0.4%; PBP1 (% bound) [7, 9]: 30 ± 0.2%
COc1ccc(OCCC(C)C)cc1 [3c{1,5}, 1-methoxy-4-(3-methyl-butyloxy) benzene] | – | – | – | – | – | None | PBP2 (% bound) [6, 12]: 2 ± 2.5%; PBP2 (% bound) [6, 10]: 5 ± 0.1%; PBP1 (% bound) [7, 12]: 1 ± 0.7%; PBP1 (% bound) [7, 10]: 7 ± 0.1%
